Measurements taken from patent US8658642B2 (Axikin Pharmaceuticals, Inc., priority 2009, dated 2014).

Biological target: T1, CCR3 (Homo sapiens, UniProt P51677)
T1 sequence (P51677 1-355): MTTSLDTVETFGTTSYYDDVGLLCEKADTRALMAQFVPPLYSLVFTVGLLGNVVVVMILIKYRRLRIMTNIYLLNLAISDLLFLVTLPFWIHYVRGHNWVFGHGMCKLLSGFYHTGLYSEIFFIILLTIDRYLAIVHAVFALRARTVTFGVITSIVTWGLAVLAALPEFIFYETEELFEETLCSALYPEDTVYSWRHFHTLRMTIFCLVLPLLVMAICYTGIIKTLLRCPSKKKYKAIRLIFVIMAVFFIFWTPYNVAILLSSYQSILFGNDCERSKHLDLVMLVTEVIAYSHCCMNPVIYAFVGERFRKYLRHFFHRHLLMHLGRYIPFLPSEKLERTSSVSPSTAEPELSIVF
Experiment: CCR3 receptor binding assay ([125I]-labeled human eotaxin/CCL11 displacement on cells)
Conditions: 0.1 nM [125I]-labeled human eotaxin/CCL11, 2×10^5 cells/well, 60 min at room temperature
Procedure: CCR3 Receptor Binding Assay
Cells were washed once with PBS and resuspended in a binding buffer (25 mM HEPES pH 7.6, 5 mM MgCl2, 1 mM CaCl2, 0.5% BSA, 0.1% NaN3). […] of cell suspension (2×10^5 cells/well) and 0.1 nM [^125I]-labeled human eotaxin/CCL11 (2000 Ci/mmol specific activity) were mixed in a 96-well U-bottom polypropylene plate, and incubated for 60 min at room temperature for the binding reaction. The cell suspension was then transferred to a filtration plate (#MAFB, Millipore), and washed 3 times with the binding buffer containing 0.5 M NaCl, scintillant added, and the radioactivity was counted on a TopCount (Packard). For the determination of non-specific binding, the cell suspension and [^125I]-labeled human eotaxin/CCL11 were incubated in the presence of 500 nM of unlabeled human eotaxin/CCL11. See, lino et al., “Molecular cloning and functional characterization of cynomolgus monkey (Macaca fascicularis) CC chemokine receptor, CCR3,” Cytokine 2002, 19, 276-286.

SMILES | Ki
Cc1cc(C)cc(Oc2ccc(C#N)cc2S(=O)(=O)N2CCN(S(=O)(=O)CC34CCC(CC3=O)C4(C)C)CC2)c1 (stereo not shown) [Compound 51] | > 5 µM
Cc1cc(C)cc(Oc2ccc(C#N)cc2S(=O)(=O)N2CCN(S(C)(=O)=O)CC2)c1 [Compound 52, 4-(3,5-Dimethylphenoxy)-3-(4-(methylsulfonyl)piperazin-1-ylsulfonyl)benzonitrile] | > 5 µM
Cc1ccc(S(=O)(=O)N2CCN(S(=O)(=O)c3cc(C#N)ccc3Oc3cc(C)cc(C)c3)CC2)cc1 [Compound 53, 4-(3,5-Dimethylphenoxy)-3-(4-tosylpiperazin-1-ylsulfonyl)benzonitrile] | > 5 µM
Cc1cc(C)cc(Oc2ccc(C#N)cc2S(=O)(=O)N2CCN(S(=O)(=O)CC(C)C)CC2)c1 [Compound 56, 4-(3,5-Dimethylphenoxy)-3-(4-(isobutylsulfonyl)piperazin-1-ylsulfonyl)benzonitrile] | > 5 µM
CCC(=O)N1CCN(S(=O)(=O)c2cc(C#N)ccc2Oc2cc(C)cc(C)c2)CC1 [Compound 57, 4-(3,5-dimethylphenoxy)-3-(4-propionylpiperazin-1-ylsulfonyl)benzonitrile] | 0.5 to 5 µM
Cc1cc(C)cc(Oc2ccc(C#N)cc2S(=O)(=O)N2CCN(C(=O)NC(C)C)CC2)c1 [Compound 58, 4-(5-cyano-2-(3,5-dimethylphenoxy)phenylsulfonyl)-N-isopropylpiperazine-1-carboxamide] | 0.05 to 0.5 µM
CCC(C)(C)C(=O)N1CCN(S(=O)(=O)c2cc(C#N)ccc2Oc2cc(C)cc(C)c2)CC1 [Compound 59, 3-(4-(2,2-Dimethylbutanoyl)piperazin-1-ylsulfonyl)-4-(3,5-dimethylphenoxy)benzonitrile] | > 5 µM
Cc1cc(C)cc(Oc2ccc(C#N)cc2S(=O)(=O)N2CCN(S(=O)(=O)c3ccc(C(F)(F)F)cc3)CC2)c1 [Compound 60, 4-(3,5-dimethylphenoxy)-3-(4-(4-(trifluoromethyl)phenylsulfonyl)piperazin-1-ylsulfonyl)benzonitrile] | > 5 µM
Cc1cc(C)cc(Oc2ccc(C#N)cc2S(=O)(=O)N2CCN(C(=O)C(C)(C)C)CC2)c1 [Compound 63, 4-(3,5-Dimethylphenoxy)-3-(4-pivaloylpiperazin-1-ylsulfonyl)benzonitrile] | > 5 µM
Cc1cc(C)cc(Oc2ccc(C#N)cc2S(=O)(=O)N2CCN(C(=O)C3CCC3)CC2)c1 [Compound 64, 3-(4-(Cyclobutanecarbonyl)piperazin-1-ylsulfonyl)-4-(3,5-dmethylphenoxy)benzonitrile] | > 5 µM
Cc1cc(C)cc(Oc2ccc(C#N)cc2S(=O)(=O)N2CCN(C(=O)C3CCCCC3)CC2)c1 [Compound 65, 3-(4-(Cyclohexanecarbonyl)piperazin-1-ylsulfonyl)-4-(3,5-dimethylphenoxy)benzonitrile] | > 5 µM
Cc1cc(C)cc(Oc2ccc(C#N)cc2S(=O)(=O)N2CCN(C(=O)CC(C)C)CC2)c1 [Compound 66, 4-(3,5-Dimethylphenoxy)-3-(4-(3-methylbutanoyl)piperazin-1-ylsulfonyl)benzonitrile] | > 5 µM
Cc1cc(C)cc(Oc2ccc(C#N)cc2S(=O)(=O)N2CCN(C(=O)CC(C)(C)C)CC2)c1 [Compound 67, 3-(4-(3,3-Dimethylbutanoyl)piperazin-1-ylsulfonyl)-4-(3,5-dimethylphenoxy)benzonitrile] | > 5 µM
Cc1cc(C)cc(Oc2ccc(C#N)cc2S(=O)(=O)N2CCN(C(=O)C3CCCC3)CC2)c1 [Compound 68, 3-(4-(Cyclopentanecarbonyl)piperazin-1-ylsulfonyl)-4-(3,5-dimethylphenoxy)benzonitrile] | > 5 µM

Now from value to molecule:

Ki | SMILES
> 5 µM | Cc1cc(C)cc(Oc2ccc(C#N)cc2S(=O)(=O)N2CCN(C(=O)c3ccc(C(F)(F)F)cc3)CC2)c1 [Compound 54, 4-(3,5-Dimethylphenoxy)-3-(4-(4-(trifluoromethyl)benzoyl)piperazin-1-ylsulfonyl)benzonitrile]
> 5 µM | Cc1cc(C)cc(Oc2ccc(C#N)cc2S(=O)(=O)N2CCN(C(=O)c3ccccc3)CC2)c1 [Compound 55, 3-(4-Benzoylpiperazin-1-ylsulfonyl)-4-(3,5-dimethylphenoxy)benzonitrile]
> 5 µM | Cc1cc(C)cc(Oc2ccc(C#N)cc2S(=O)(=O)N2CCN(C(=O)Nc3cccc(F)c3)CC2)c1 [Compound 61, 4-(5-Cyano-2-(3,5-dimethylphenoxy)phenylsulfonyl)-N-(3-fluorophenyl)piperazine-1-carboxamide]
> 5 µM | CCc1ccc(NC(=O)N2CCN(S(=O)(=O)c3cc(C#N)ccc3Oc3cc(C)cc(C)c3)CC2)cc1 [Compound 62, 4-(5-Cyano-2-(3,5-dimethylphenoxy)phenylsulfonyl)-N-(4-ethylphenyl)piperazine-1-carboxamide]
> 5 µM | N#Cc1ccc(Oc2cc(Cl)cc(Cl)c2)c(S(=O)(=O)N2CCN(C(=O)c3ccc(C(F)(F)F)cc3)CC2)c1 [Compound 69, 4-(3,5-Dichlorophenoxy)-3-(4-(4-(trifluoromethyl)benzoyl)piperazin-1-ylsulfonyl)benzonitrile]
≤ 0.05 µM | N#Cc1ccc(Oc2cc(Cl)cc(Cl)c2)c(S(=O)(=O)N2CCN(C(=O)c3ccccc3)CC2)c1 [Compound 70, 3-(4-Benzoylpiperazin-1-ylsulfonyl)-4-(3,5-dichlorophenoxy)benzonitrile]
> 5 µM | CC(C)(C)CC(=O)N1CCN(S(=O)(=O)c2cc(C#N)ccc2Oc2cc(Cl)cc(Cl)c2)CC1 [Compound 71, 4-(3,5-Dichlorophenoxy)-3-(4-(3,3-dimethylbutanoyl)piperazin-1-ylsulfonyl)benzonitrile]
0.5 to 5 µM | CC(C)CC(=O)N1CCN(S(=O)(=O)c2cc(C#N)ccc2Oc2cc(Cl)cc(Cl)c2)CC1 [Compound 72, 4-(3,5-Dichlorophenoxy)-3-(4-(3-methylbutanoyl)piperazin-1-ylsulfonyl)benzonitrile]
> 5 µM | N#Cc1ccc(Oc2cc(Cl)cc(Cl)c2)c(S(=O)(=O)N2CCN(C(=O)C3CCC3)CC2)c1 [Compound 73, 3-(4-(Cyclobutanecarbonyl)piperazin-1-ylsulfonyl)-4-(3,5-dichlorophenoxy)benzonitrile]
> 5 µM | N#Cc1ccc(Oc2cc(Cl)cc(Cl)c2)c(S(=O)(=O)N2CCN(C(=O)C3CCCC3)CC2)c1 [Compound 74, 3-(4-(Cyclopentanecarbonyl)piperazin-1-ylsulfonyl)-4-(3,5-dichlorophenoxy)benzonitrile]
≤ 0.05 µM | N#Cc1ccc(Oc2cc(Cl)cc(Cl)c2)c(S(=O)(=O)N2CCN(C(=O)Nc3cccc(F)c3)CC2)c1 [Compound 75, 4-(5-Cyano-2-(3,5-dichlorophenoxy)phenylsulfonyl)-N-(3-fluorophenyl)piperazine-1-carboxamide]
≤ 0.05 µM | CS(=O)(=O)N1CCN(S(=O)(=O)c2cc(C#N)ccc2Oc2cc(Cl)cc(Cl)c2)CC1 [Compound 76, 4-(3,5-Dichlorophenoxy)-3-(4-(methylsulfonyl)piperazin-1-ylsulfonyl)benzonitrile]
≤ 0.05 µM | Cc1ccc(S(=O)(=O)N2CCN(S(=O)(=O)c3cc(C#N)ccc3Oc3cc(Cl)cc(Cl)c3)CC2)cc1 [Compound 77, 4-(3,5-Dichlorophenoxy)-3-(4-tosylpiperazin-1-ylsulfonyl)benzonitrile]
0.05 to 0.5 µM | N#Cc1ccc(Oc2cc(Cl)cc(Cl)c2)c(S(=O)(=O)N2CCN(C(=O)c3ccc(Cl)cc3)CC2)c1 [Compound 78, 3-(4-(4-Chlorobenzoyl)piperazin-1-ylsulfonyl)-4-(3,5-dichlorophenoxy)benzonitrile]
≤ 0.05 µM | Cc1cccc(C(=O)N2CCN(S(=O)(=O)c3cc(C#N)ccc3Oc3cc(Cl)cc(Cl)c3)CC2)c1 [Compound 79, 4-(3,5-Dichlorophenoxy)-3-(4-(3-methylbenzoyl)piperazin-1-ylsulfonyl)benzonitrile]
0.5 to 5 µM | CC(C)NC(=O)N1CCN(S(=O)(=O)c2cc(C#N)ccc2Oc2cc(Cl)cc(Cl)c2)CC1 [Compound 80, 4-(5-Cyano-2-(3,5-dichlorophenoxy)phenylsulfonyl)-N-isopropylpiperazine-1-carboxamide]
0.5 to 5 µM | N#Cc1ccc(Oc2cc(Cl)cc(Cl)c2)c(S(=O)(=O)N2CCN(C(=O)c3cccc(Cl)c3)CC2)c1 [Compound 81, 3-(4-(3-Chlorobenzoyl)piperazin-1-ylsulfonyl)-4-(3,5-dichlorophenoxy)benzonitrile]
0.5 to 5 µM | Cc1ccc(C(=O)N2CCN(S(=O)(=O)c3cc(C#N)ccc3Oc3cc(Cl)cc(Cl)c3)CC2)cc1 [Compound 82, 4-(3,5-Dichlorophenoxy)-3-(4-(4-methylbenzoyl)piperazin-1-ylsulfonyl)benzonitrile]
0.5 to 5 µM | Cc1ccccc1C(=O)N1CCN(S(=O)(=O)c2cc(C#N)ccc2Oc2cc(Cl)cc(Cl)c2)CC1 [Compound 83, 4-(3,5-Dichlorophenoxy)-3-(4-(2-methylbenzoyl)piperazin-1-ylsulfonyl)benzonitrile]
0.5 to 5 µM | N#Cc1ccc(Oc2cc(Cl)cc(Cl)c2)c(S(=O)(=O)N2CCN(C(=O)c3ccccc3Cl)CC2)c1 [Compound 84, 3-(4-(2-Chlorobenzoyl)piperazin-1-ylsulfonyl)-4-(3,5-dichlorophenoxy)benzonitrile]
